Square brackets hold non-standard residues; d marks the D form. Ends that are not written are not given here. Peptide text beside a SMILES is read from it.

The text below walks through data of PMC12129089, “Peptide stereocomplex cross-links for polymer hydrogels” (Chemical Science, 2025).

Data set [1] can be described thus: Solubility / visual appearance in water, PBS or urea-PBS. It counts as physicochemical. The text has this: To attach the peptides to PEG, we selected a thiol-maleimide reaction[43,44] due to its efficiency under mild conditions (Fig. 1a). Therefore, we prepared cysteine-terminated L- and […], or […] and […]8 ^†), for conjugation to maleimide-functionalized 4-arm PEG. […] We note that […] peptides are only partially soluble and form a white dispersion in the 7 M urea 1× PBS solution (Fig. S10 ^†). […] In 1× PBS, while 1.5% (w/v) unconjugated KYFIL forms β-sheets, the conjugates are soluble and we see no evidence of β-sheet formation by infrared (IR) spectroscopy even at 15% ([…] ^†), corresponding to a peptide equivalent concentration of ∼2% (w/v), which exceeds the peptide concentrations in the 1.5% (w/v) formulations of peptide alone. As noted in our previous report on unconjugated KYFIL,[20] we used IR here for secondary structure determination rather than CD because the high peptide concentrations and the presence of salt that promote β-sheet formation also complicate CD spectra acquisition by saturating the detector. […] Moreover, the absorbances are more prominent at higher concentrations (Fig. 2b), signifying the relationship between secondary structure and hydrogel formation.

Another data set addresses T1, Proteinase K (Parengyodontium album, UniProt P06873).
T1 construct: purchased Sigma-Aldrich
The conditions noted are these: unconjugated KYFIL peptides; cited from earlier work. The procedure: Given the potential of peptide stereocomplexes to prolong hydrogel lifetime due to enhanced proteolytic stability, we were interested to learn whether the KYFIL stereocomplex cross-links boost the proteolytic stability of polymeric hydrogels. In our prior study with unconjugated KYFIL stereocomplexes, we incubated l-, 1 : 1 L : D-, and D-KYFIL in Proteinase K, an enzyme that is predicted to cleave L-KYFIL between the Y–F, F–I, and I–L residues.[57] We found more than 90% intact peptide in the 1 : 1 L : D-peptide mixtures after incubation with Proteinase K for 72 h, while only ∼35% L-KYFIL rema ...

T1 sequence (P06873 106-384): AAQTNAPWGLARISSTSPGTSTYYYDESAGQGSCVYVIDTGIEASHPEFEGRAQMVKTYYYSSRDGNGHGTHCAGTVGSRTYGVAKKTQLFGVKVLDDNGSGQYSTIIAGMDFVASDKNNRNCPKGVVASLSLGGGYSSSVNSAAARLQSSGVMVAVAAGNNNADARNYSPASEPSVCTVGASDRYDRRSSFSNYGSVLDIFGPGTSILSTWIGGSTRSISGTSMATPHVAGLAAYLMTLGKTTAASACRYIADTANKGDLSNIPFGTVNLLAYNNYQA

In the case of `CC[C@@H](C)[C@@H](NC(=O)[C@@H](Cc1ccccc1)NC(=O)[C@@H](Cc1ccc(O)cc1)NC(=O)[C@H](N)CCCCN)C(=O)N[C@H](CC(C)C)C(=O)N[C@H](CS)C(N)=O` [D-KYFILC] (H-[dK][dY][dF][dI][dL][dC]-NH2), in data set [1], the “solubility in water (in words)” value is reported as “soluble”.
As for KYFILC-NH2 [L-KYFILC], the “solubility in water (in words)” value in data set [1] is given as “soluble”.
Consider “L-KYFIL [unconjugated L-peptide KYFIL of the authors' prior study]”, for which the “intact peptide after incubation with Proteinase K for 72 h” value at Proteinase K was around 35%.
